In US20260042734A1, “HETEROCYCLIC RING-SUBSTITUTED AROMATIC COMPOUND, PREPARATION METHOD THEREFOR, AND USE THEREOF” (SHANGHAI HENLIUS BIOTECH, INC., priority 2023, published 2026) one finds IC50 and inhibition data, which are given here for 30 compounds.

pIC50: −log10 of the molar value. Some results are limits rather than exact numbers.

Chain of human Kv1.3 (hKv1.3) channels (P22001 whole entry): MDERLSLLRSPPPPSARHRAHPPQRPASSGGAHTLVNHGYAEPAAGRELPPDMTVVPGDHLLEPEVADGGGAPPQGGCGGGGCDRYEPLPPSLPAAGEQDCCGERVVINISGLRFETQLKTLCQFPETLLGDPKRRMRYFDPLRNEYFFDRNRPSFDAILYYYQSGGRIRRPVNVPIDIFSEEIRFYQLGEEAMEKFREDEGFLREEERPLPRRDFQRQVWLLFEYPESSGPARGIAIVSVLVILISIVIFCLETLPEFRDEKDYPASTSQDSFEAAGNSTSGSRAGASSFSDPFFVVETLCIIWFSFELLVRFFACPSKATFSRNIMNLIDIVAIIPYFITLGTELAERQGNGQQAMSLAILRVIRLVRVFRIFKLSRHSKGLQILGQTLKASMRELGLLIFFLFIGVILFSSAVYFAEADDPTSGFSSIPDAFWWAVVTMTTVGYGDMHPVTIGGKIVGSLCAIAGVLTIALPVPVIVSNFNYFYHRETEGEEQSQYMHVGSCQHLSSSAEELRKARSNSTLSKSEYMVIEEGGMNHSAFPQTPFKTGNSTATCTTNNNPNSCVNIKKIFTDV

The first assay addresses human Kv1.3 (hKv1.3) channels (Homo sapiens (Human), UniProt P22001). Briefly: Electrophysiological (whole-cell patch clamp) determination of inhibitory activity on Kv1.3 channels. Conditions: HEK293T cells expressing hKv1.3; Hill fit of peak current inhibition. In kind it is cell-based. The method, then: Test Example 1: Determination of Inhibitory Activity of Compounds on Kv1.3 (hKv1.3) Channels
Electrophysiological Testing
Potassium currents were measured using HEK293T cells expressing human Kv1.3 (hKv1.3) channels.
Prior to the start of electrophysiological experiments, Kv1.3 cell lines should be maintained within 70% of the maximum density in the logarithmic growth phase. All reagents should be pre-warmed to 37° C. before use. • 1) Aspirate the spent medium from the 6 cm culture dish. • 2) Add 1 mL of PBS, gently rock the dish to rinse the bottom, and then remove the PBS. • 3) Add 1 mL of trypsin, and gently rock the dish to ensure the trypsin covers all the cells. • 4) Incubate at 37° C. for 2-3 minutes, and then gently pipette the cells to suspend the adherent cells. • 5) Transfer the cell suspension to a new centrifuge tube and centrifuge at 1000 rpm for 5 minutes. Adjust the cell concentration to 2×10^3 cells/mL, and then seed 300 μL of the cell suspension into each well of a 24-well plate containing cell climbing slides. Perform patch clamp experiments after the cells adhered properly.
The intracellular and extracellular solutions used were designed to mimic the cell physiological ionic composition.
Kv1.3 extracellular solution: 137 mM NaCl, 1 mM MgCl2·6H2O, 4 mM KCl, 1.8 mM CaCl2·2H2O, 10 mM D-Glucose, 10 mM HEPES, pH adjusted to 7.4 with NaOH.
Kv1.3 intracellular solution: 140 mM KCl, 10 mM EGTA, 5 mM MgCl2·6H2O, 10 mM HEPES, […], pH adjusted to 7.2 with KOH.
Test Compound Dissolution
• 1) The test compound was dissolved in DMSO to prepare a 30 mM stock solution. • 2) The stock solution of the test compound was serially diluted with DMSO to obtain secondary stock solutions at concentrations of 300 μM, 100 μM, 30 μM, 10 μM, and 3 μM. • 3) 10 μL of each secondary stock solution was diluted into 10 mL of extracellular solution to achieve final concentrations of 300 nM, 100 nM, 30 nM, 10 nM, and 3 nM for electrophysiological testing.
Kv1.3 potassium current data were collected and stored on a computer using Patchmaster software via an EPC-10 amplifier. • 1) The cell climbing slide was removed from the cell culture dish using forceps, immersed with extracellular solution, and placed into the bath chamber on the stage of an inverted microscope. • 2) Glass micropipettes were pulled using a P-1000 micropipette puller, filled one-third of their volume with intracellular solution, and then mounted onto an electrode holder. • 3) Using a motorized micromanipulator (Scientifica-Double 1U), the recording electrode was brought into contact with the cell surface. […] The positive pressure was removed, and a negative pressure of 0.5 cm H2O was applied. It was observed that the sealing resistance increased rapidly until it reached the gigaseal. When the sealing resistance between the recording electrode and the cell membrane was >1 GΩ, negative pressure was applied to rupture the membrane to form the whole-cell recording mode. After the ruptured membrane stabilized, the membrane capacitance (Cs) and series resistance (Rs) were compensated. • 4) Stimulation procedure: the cell was voltage-clamped at −80 mV, depolarized to 40 mV for a duration of 200 ms, and then repolarized to −80 mV. Currents were recorded every 10 s. • 5) Kv1.3 potassium channel currents were recorded at room temperature prior to drug application. After the control current value reached a steady state (indicated by overlapping of the four most consecutive current traces), cumulative drug application was performed. The negative control (0.1% DMSO) was applied first, followed by […] of the drugs.
Raw Kv1.3 current peak data were extracted from PatchMaster software. The current inhibition rate was calculated as follows: Peak current inhibition rate=((1−(Peak current compound)/(Peak current vehicle))). […]
A general note: In patch-clamp work, channel activity is measured electrically.
Regarding `OCCCN1C[C@H](c2c(O)ccc(Cl)c2Cl)CC1=S` [Compound 1-1, (S)-4-(2,3-Dichloro-6-hydroxyphenyl)-1-(3-hydroxypropyl)pyrrolidine-2-thione], the pIC50 – broadly, the IC50 on a negative log10 scale, so that one unit is a factor of ten – is 8.00 to 8.30. As to `OCC(F)(F)CN1C[C@H](c2c(O)ccc(Cl)c2Cl)CC1=S` [Compound 121-1, (S)-4-(2,3-Dichloro-6-hydroxyphenyl)-1-(2,2-difluoro-3-hydroxypropyl)pyrrolidine-2-thione], the pIC50 is 7.52 to 8.00.

`Oc1ccc(Cl)c(Cl)c1[C@@H]1CC(=S)N([C@H]2C[C@H](O)C2)C1` [Compound 124-1, (S)-4-(2,3-Dichloro-6-hydroxyphenyl)-1-((1r,3r)-3-hydroxycyclobutyl)pyrrolidine-2-thione] had a pIC50 of 8.00 to 8.30. Compound `Oc1ccc(Cl)c(Cl)c1[C@@H]1CC(=S)N(C[C@H]2C[C@H](O)C2)C1` [Compound 129-1, (S)-4-(2,3-Dichloro-6-hydroxyphenyl)-1-(((1r,3r)-3-hydroxycyclobutyl)methyl)pyrrolidine-2-thione] gave a pIC50 of at least 8.30. On the same count and under the same terms, for `OCCCCN1C[C@H](c2c(O)ccc(Cl)c2Cl)CC1=S` [Compound 130-1, (S)-4-(2,3-Dichloro-6-hydroxyphenyl)-1-(4-hydroxybutyl)pyrrolidine-2-thione] the value was at least 8.30.

The same assay, now with this note: HEK-293T; compound concentration 10 nM; HEK293T cells expressing hKv1.3; peak current inhibition; read-out: 10 nM inhibition rate (Kv1.3).
Turning to `Oc1ccc(Cl)c(Cl)c1C1CC(=S)N(c2cnn(C3COC3)c2)C1` (racemic) [Compound 164, rac-4-(2,3-dichloro-6-hydroxyphenyl)-1-(1-(oxetan-3-yl)-1H-pyrazol-4-yl)pyrrolidine-2-thione], the inhibition (usually the relative decrease from the control value, in per cent) at 0.01 µM was 50 to 75%. Turning to `COc1ccc(N2CC(c3c(O)ccc(Cl)c3Cl)CC2=S)cn1` (racemic) [Compound 165, rac-4-(2,3-dichloro-6-hydroxyphenyl)-1-(6-methoxypyridin-3-yl)pyrrolidine-2-thione], the inhibition at 0.01 µM fell in the range of 0 to 5%.

Regarding `COc1cc(N2CC(c3c(O)ccc(Cl)c3Cl)CC2=S)ccn1` (racemic) [Compound 166, rac-4-(2,3-dichloro-6-hydroxyphenyl)-1-(2-methoxypyridin-4-yl)pyrrolidine-2-thione], the inhibition at 0.01 µM lay within 0 to 5%. As to `Cc1cc(N2CC(c3c(O)ccc(Cl)c3Cl)CC2=S)ccn1` (racemic) [Compound 167, rac-4-(2,3-dichloro-6-hydroxyphenyl)-1-(2-methylpyridin-4-yl)pyrrolidine-2-thione], the inhibition at 0.01 µM fell in the range of 0 to 5%. Same read-out and setting: for `O=C1N(CCCO)CC(c2c(O)ccc(Cl)c2Cl)C1(F)F` (racemic) [Compound 168, rac-4-(2,3-dichloro-6-hydroxyphenyl)-3,3-difluoro-1-(3-hydroxypropyl)pyrrolidin-2-one] the value was below 0%. For `O=C1N(CCCO)CC(c2c(O)ccc(Cl)c2Cl)C12CC2` (racemic) [Compound 169, rac-7-(2,3-dichloro-6-hydroxyphenyl)-5-(3-hydroxypropyl)-5-azaspiro[2.4]heptan-4-one], the inhibition at 0.01 µM is below 0%.

On to `Cn1cncc1N1CC(c2c(O)ccc(Cl)c2Cl)CC1=S` (stereo not drawn) [Compound 42, 4-(2,3-Dichloro-6-hydroxyphenyl)-1-(1-methyl-1H-imidazol-5-yl)pyrrolidine-2-thione], for which the inhibition at 0.01 µM was below 0%. With `Cc1ncc(N2CC(c3c(O)ccc(Cl)c3Cl)CC2=S)s1` (stereo not drawn) [Compound 43, 4-(2,3-Dichloro-6-hydroxyphenyl)-1-(2-methylthiazol-5-yl)pyrrolidine-2-thione], the inhibition at 0.01 µM is 0 to 5%. With `CS(=O)(=O)NCCCN1CC(c2c(O)ccc(Cl)c2Cl)CC1=O` (stereo not drawn) [Compound 76, N-(3-(4-(2,3-Dichloro-6-hydroxyphenyl)-2-oxopyrrolidin-1-yl)propyl)methanesulfonamide], the inhibition at 0.01 µM fell in the range of 0 to 5%. On to `NS(=O)(=O)CCN1CC(c2c(O)ccc(Cl)c2Cl)CC1=O` (stereo not drawn) [Compound 77, 2-(4-(2,3-Dichloro-6-hydroxyphenyl)-2-oxopyrrolidin-1-yl)ethane-1-sulfonamide], for which the inhibition at 0.01 µM was 0 to 5%. Same read-out and setting: under `CS(=N)(=O)CCN1CC(c2c(O)ccc(Cl)c2Cl)CC1=O` (stereo not drawn) [Compound 78, 4-(2,3-Dichloro-6-hydroxyphenyl)-1-(2-(S-methylsulfonylimino)ethyl) pyrrolidin-2-one] stands 0 to 5%. For the compound `CS(=O)(=O)CCN1CC(c2c(O)ccc(Cl)c2Cl)CC1=O` (stereo not drawn) [Compound 79, 4-(2,3-Dichloro-6-hydroxyphenyl)-1-(2-(methylsulfonyl)ethyl)pyrrolidin-2-one], the inhibition at 0.01 µM was below 0%.

Turning to `C=Cn1cc(N2CC(c3c(O)ccc(Cl)c3Cl)CC2=O)cn1` (stereo not drawn) [Compound 90, 4-(2,3-Dichloro-6-hydroxyphenyl)-1-(1-vinyl-1H-pyrazol-4-yl)pyrrolidin-2-one], the inhibition at 0.01 µM was in the range of 50 to 75%.

In the case of `O=C1CC(c2c(O)ccc(Cl)c2Cl)CN1C1CC2(CNC2)C1` (stereo not drawn) [Compound 100, 4-(2,3-Dichloro-6-hydroxyphenyl)-1-(2-azaspiro[3.3]heptan-6-yl)pyrrolidin-2-one], the inhibition at 0.01 µM is at least 75%. As for `NC1CC2(C1)CC(N1CC(c3c(O)ccc(Cl)c3Cl)CC1=O)C2` (stereo not drawn) [Compound 101, 1-(6-Aminospiro[3.3]heptan-2-yl)-4-(2,3-dichloro-6-hydroxyphenyl) pyrrolidin-2-one], the inhibition at 0.01 µM is 50 to 75%. Take `CONCCCN1CC(c2c(O)ccc(Cl)c2Cl)CC1=O` (stereo not drawn) [Compound 104, 4-(2,3-Dichloro-6-hydroxyphenyl)-1-(3-(methoxyamino)propyl)pyrrolidin-2-one]: the inhibition at 0.01 µM lay in the range of 0 to 5%. In the case of `CON(C)CCCN1CC(c2c(O)ccc(Cl)c2Cl)CC1=O` (stereo not drawn) [Compound 105, 4-(2,3-Dichloro-6-hydroxyphenyl)-1-(3-(methoxy(methyl)amino)propyl) pyrrolidin-2-one], the inhibition at 0.01 µM is below 0%. With `NC(=S)CCN1CC(c2c(O)ccc(Cl)c2Cl)CC1=O` (stereo not drawn) [Compound 113, 3-(4-(2,3-Dichloro-6-hydroxyphenyl)-2-oxopyrrolidin-1-yl)propanethioamide], the inhibition at 0.01 µM is below 0%. Still for that read-out and setting: under `N=C(N)CCN1CC(c2c(O)ccc(Cl)c2Cl)CC1=O` (stereo not drawn) [Compound 114, 3-(4-(2,3-Dichloro-6-hydroxyphenyl)-2-oxopyrrolidin-1-yl)propionimide] stands 0 to 5%; under `O=C(CCN1CC(c2c(O)ccc(Cl)c2Cl)CC1=O)NO` (stereo not drawn) [Compound 115, 3-(4-(2,3-Dichloro-6-hydroxyphenyl)-2-oxopyrrolidin-1-yl)-N-hydroxypropionamide], 25 to 50%; under `CN(O)C(=O)CCN1CC(c2c(O)ccc(Cl)c2Cl)CC1=O` (stereo not drawn) [Compound 116, 3-(4-(2,3-Dichloro-6-hydroxyphenyl)-2-oxopyrrolidin-1-yl)-N-hydroxy-N-methylpropionamide], below 0%. Consider `CONC(=O)CCN1CC(c2c(O)ccc(Cl)c2Cl)CC1=O` (stereo not drawn) [Compound 117, 3-(4-(2,3-Dichloro-6-hydroxyphenyl)-2-oxopyrrolidin-1-yl)-N-methoxypropionamide], for which the inhibition at 0.01 µM was 0 to 5%.

Turning to `O=C1CC(c2c(O)ccc(Cl)c2Cl)CN1CCNO` (stereo not drawn) [Compound 118, 4-(2,3-Dichloro-6-hydroxyphenyl)-1-(2-(hydroxyamino)ethyl)pyrrolidin-2-one], the inhibition at 0.01 µM is 25 to 50%. On to `NOCCN1CC(c2c(O)ccc(Cl)c2Cl)CC1=O` (stereo not drawn) [Compound 119, 1-(2-(Aminooxy)ethyl)-4-(2,3-dichloro-6-hydroxyphenyl)pyrrolidin-2-one], for which the inhibition at 0.01 µM was 0 to 5%. For `NOCCCN1CC(c2c(O)ccc(Cl)c2Cl)CC1=O` (stereo not drawn) [Compound 120, 1-(3-(Aminooxy)propyl)-4-(2,3-dichloro-6-hydroxyphenyl)pyrrolidin-2-one], the inhibition at 0.01 µM was below 0%.
